{"source": "paper PMC5218480", "about": "(PLoS ONE, 2017)", "test_system": "MV-4-11 cells", "assay": "Gene expression microarray analysis (Affymetrix PrimeView) and GSEA", "assay_type": "cell-based, human", "set-up": "RFU PODN (11730768_x_at) / Fold change /veh PODN (11730768_x_at) / RFU LINC00158 (11744669_a_at) / Fold change /veh LINC00158 (11744669_a_at) / RFU DUSP10 (11751237_a_at) / Fold change /veh DUSP10 (11751237_a_at) / RFU ID3 (11757404_x_at) / Fold change /veh ID3 (11757404_x_at) / RFU PLEKHG5 (11737974_s_at) / Fold change /veh PLEKHG5 (11737974_s_at) / RFU LRRC4B (11730491_at) / Fold change /veh LRRC4B (11730491_at) / RFU GIMAP4 (11747438_a_at) / Fold change /veh GIMAP4 (11747438_a_at) / RFU KRT8 (11758183_x_at) / Fold change /veh KRT8 (11758183_x_at) / RFU CNN1 (11734310_a_at) / Fold change /veh CNN1 (11734310_a_at) / RFU VPS37D (11726825_at) / Fold change /veh VPS37D (11726825_at) / RFU C10orf10 (11716522_x_at) / Fold change /veh C10orf10 (11716522_x_at) / RFU KIR2DL2 /// KIR2DL4 /// KIR2DL5A /// KIR2DL5B /// KIR2DS1 /// KIR2DS2 /// KIR2DS3 /// KIR2DS4 /// KIR3DL3 /// KIR3DL3 /// KIR3DS1 (11738374_at) / Fold change /veh KIR2DL2 /// KIR2DL4 /// KIR2DL5A /// KIR2DL5B /// KIR2DS1 /// KIR2DS2 /// KIR2DS3 /// KIR2DS4 /// KIR3DL3 /// KIR3DL3 /// KIR3DS1 (11738374_at) / RFU C1QL1 (11718748_at) / Fold change /veh C1QL1 (11718748_at) / RFU TMPRSS4 (11747572_a_at) / Fold change /veh TMPRSS4 (11747572_a_at) / RFU HAMP (11756126_x_at) / Fold change /veh HAMP (11756126_x_at) / RFU RNFT2 (11725882_a_at) / Fold change /veh RNFT2 (11725882_a_at) / RFU NR4A2 (11747474_a_at) / Fold change /veh NR4A2 (11747474_a_at) / RFU ABCC12 (11746883_a_at) / Fold change /veh ABCC12 (11746883_a_at) / RFU TMEM136 (11760407_x_at) / Fold change /veh TMEM136 (11760407_x_at) / RFU CLDN22 /// WWC2 (11732394_at) / Fold change /veh CLDN22 /// WWC2 (11732394_at) / RFU HLA-DPB1 (11760878_x_at) / Fold change /veh HLA-DPB1 (11760878_x_at) / RFU SPINT1 (11716480_a_at) / Fold change /veh SPINT1 (11716480_a_at) / RFU GAP43 (11754022_s_at) / Fold change /veh GAP43 (11754022_s_at) / RFU A4GNT (11735810_at) / Fold change /veh A4GNT (11735810_at) / RFU PRB3 (11715151_x_at) / Fold change /veh PRB3 (11715151_x_at) / RFU TUBB4B (11761932_at) / Fold change /veh TUBB4B (11761932_at) / RFU CAPN14 (11732068_a_at) / Fold change /veh CAPN14 (11732068_a_at) / RFU TMCC2 (11721928_a_at) / Fold change /veh TMCC2 (11721928_a_at) / RFU IRGQ (11745062_a_at) / Fold change /veh IRGQ (11745062_a_at) / RFU FAM174B (11720279_a_at) / Fold change /veh FAM174B (11720279_a_at) / RFU TMPRSS4 (11748680_a_at) / Fold change /veh TMPRSS4 (11748680_a_at) / RFU FAM212B (11763350_a_at) / Fold change /veh FAM212B (11763350_a_at) / RFU PLEKHG5 (11743358_a_at) / Fold change /veh PLEKHG5 (11743358_a_at) / RFU ZSCAN30 (11745921_a_at) / Fold change /veh ZSCAN30 (11745921_a_at) / RFU CMKLR1 (11741424_a_at) / Fold change /veh CMKLR1 (11741424_a_at) / RFU LOC101060620 /// MAPK8IP1 (11723275_at) / Fold change /veh LOC101060620 /// MAPK8IP1 (11723275_at) / RFU SPTSSB (11747773_x_at) / Fold change /veh SPTSSB (11747773_x_at) / RFU PRSS12 (11739890_at) / Fold change /veh PRSS12 (11739890_at) / RFU BIN1 (11741810_x_at) / Fold change /veh BIN1 (11741810_x_at) / RFU WNT11 (11732464_a_at) / Fold change /veh WNT11 (11732464_a_at) / RFU C10orf10 (11716521_a_at) / Fold change /veh C10orf10 (11716521_a_at) / RFU C5orf56 (11738089_at) / Fold change /veh C5orf56 (11738089_at) / RFU CYB561 (11721691_x_at) / Fold change /veh CYB561 (11721691_x_at) / RFU ANKRD19P (11752326_a_at) / Fold change /veh ANKRD19P (11752326_a_at) / RFU OR2T12 /// OR2T33 /// OR2T8 (11738714_s_at) / Fold change /veh OR2T12 /// OR2T33 /// OR2T8 (11738714_s_at) / RFU VCAN (11748164_a_at) / Fold change /veh VCAN (11748164_a_at) / RFU JSRP1 (11732532_at) / Fold change /veh JSRP1 (11732532_at) / RFU KRTAP10-11 (11738290_x_at) / Fold change /veh KRTAP10-11 (11738290_x_at) / RFU MYO3A (11730013_a_at) / Fold change /veh MYO3A (11730013_a_at) / RFU EBF3 (11725865_a_at) / Fold change /veh EBF3 (11725865_a_at) / RFU CAMK2N1 (11719241_x_at) / Fold change /veh CAMK2N1 (11719241_x_at) / RFU C5orf56 (11738088_a_at) / Fold change /veh C5orf56 (11738088_a_at) / RFU OLFML3 (11715873_a_at) / Fold change /veh OLFML3 (11715873_a_at) / RFU LOC100653217 /// NTM (11731650_a_at) / Fold change /veh LOC100653217 /// NTM (11731650_a_at) / RFU MAPK11 (11762145_a_at) / Fold change /veh MAPK11 (11762145_a_at) / RFU FIZ1 (11724087_x_at) / Fold change /veh FIZ1 (11724087_x_at) / RFU OASL (11726364_x_at) / Fold change /veh OASL (11726364_x_at) / RFU SOX15 (11748057_x_at) / Fold change /veh SOX15 (11748057_x_at) / RFU CD79A (11719716_a_at) / Fold change /veh CD79A (11719716_a_at) / RFU HIST1H1D (11736915_at) / Fold change /veh HIST1H1D (11736915_at) / RFU CASKIN2 (11723855_a_at) / Fold change /veh CASKIN2 (11723855_a_at) / RFU LOC730098 (11760151_x_at) / Fold change /veh LOC730098 (11760151_x_at) / RFU OR4N2 (11742367_at) / Fold change /veh OR4N2 (11742367_at) / RFU PRRT2 (11749266_a_at) / Fold change /veh PRRT2 (11749266_a_at) / RFU SNX32 (11753110_a_at) / Fold change /veh SNX32 (11753110_a_at) / RFU CDHR5 (11726645_a_at) / Fold change /veh CDHR5 (11726645_a_at) / RFU RCAN1 (11760418_a_at) / Fold change /veh RCAN1 (11760418_a_at) / RFU FAM167A (11723789_a_at) / Fold change /veh FAM167A (11723789_a_at) / RFU FAM26E (11764081_at) / Fold change /veh FAM26E (11764081_at) / RFU ISYNA1 (11749810_s_at) / Fold change /veh ISYNA1 (11749810_s_at) / RFU ACY1 (11761880_at) / Fold change /veh ACY1 (11761880_at) / RFU 11764098_at / Fold change /veh 11764098_at / RFU SAMD14 (11745864_x_at) / Fold change /veh SAMD14 (11745864_x_at) / RFU NPB (11741838_a_at) / Fold change /veh NPB (11741838_a_at) / RFU TMPRSS6 (11731388_a_at) / Fold change /veh TMPRSS6 (11731388_a_at) / RFU KRTAP10-2 (11738614_at) / Fold change /veh KRTAP10-2 (11738614_at) / RFU ARHGAP8 /// PRR5-ARHGAP8 (11727945_x_at) / Fold change /veh ARHGAP8 /// PRR5-ARHGAP8 (11727945_x_at) / RFU KRTAP5-7 /// NADSYN1 (11734609_at) / Fold change /veh KRTAP5-7 /// NADSYN1 (11734609_at) / RFU RASL12 (11751679_a_at) / Fold change /veh RASL12 (11751679_a_at) / RFU CDKN2B (11736163_a_at) / Fold change /veh CDKN2B (11736163_a_at) / RFU PRF1 (11729649_at) / Fold change /veh PRF1 (11729649_at) / RFU, ZNF638 /// ZNF638-IT1 / Fold change vs veh, ZNF638 /// ZNF638-IT1 / RFU, PANK3 / Fold change vs veh, PANK3 / RFU, SH3YL1 / Fold change vs veh, SH3YL1 / RFU, ZEB2 / Fold change vs veh, ZEB2 / RFU, NRIP1 / Fold change vs veh, NRIP1 / RFU, PTTG1IP / Fold change vs veh, PTTG1IP / RFU, CAPN2 / Fold change vs veh, CAPN2 / RFU, MED14 / Fold change vs veh, MED14 / RFU, SNORA58 / Fold change vs veh, SNORA58 / RFU, C1orf63 / Fold change vs veh, C1orf63 / RFU, LRRFIP1 / Fold change vs veh, LRRFIP1 / RFU, NDUFAF7 / Fold change vs veh, NDUFAF7 / RFU, SLC12A2 / Fold change vs veh, SLC12A2 / RFU, IBTK / Fold change vs veh, IBTK / RFU, ESF1 / Fold change vs veh, ESF1 / Fold change vs veh, TMEM50B / RFU, TAOK1 / Fold change vs veh, TAOK1 / RFU, ACBD3 / Fold change vs veh, ACBD3 / RFU, TMA16 / Fold change vs veh, TMA16 / RFU, RWDD3 / Fold change vs veh, RWDD3 / RFU, BCAT1 / Fold change vs veh, BCAT1 / RFU, EDEM3 / Fold change vs veh, EDEM3 / RFU, TMEM33 / Fold change vs veh, TMEM33 / RFU, WDR75 / Fold change vs veh, WDR75 / RFU, AHCTF1 / Fold change vs veh, AHCTF1 / RFU, TFRC / Fold change vs veh, TFRC / RFU, ZDHHC17 / Fold change vs veh, ZDHHC17 / RFU, NOM1 / Fold change vs veh, NOM1 / RFU, ARL8B / Fold change vs veh, ARL8B / RFU, ZBTB11 / Fold change vs veh, ZBTB11 / RFU, TAMM41 / Fold change vs veh, TAMM41 / RFU, KIAA1704 /// LOC100996395 / Fold change vs veh, KIAA1704 /// LOC100996395 / RFU, ING1 / Fold change vs veh, ING1 / RFU, TRMT61B / Fold change vs veh, TRMT61B / RFU, FUBP3 / Fold change vs veh, FUBP3 / RFU, TP53 / Fold change vs veh, TP53 / RFU, TNKS2 / Fold change vs veh, TNKS2 / RFU, ZFP14 / Fold change vs veh, ZFP14 / RFU, ACTR2 / Fold change vs veh, ACTR2 / RFU, PPP3R1 / Fold change vs veh, PPP3R1 / RFU, PIK3R1 / Fold change vs veh, PIK3R1 / RFU, HNRNPA1 / Fold change vs veh, HNRNPA1 / RFU, RNF170 / Fold change vs veh, RNF170 / RFU, ZNF28 / Fold change vs veh, ZNF28 / RFU, RNGTT / Fold change vs veh, RNGTT / RFU, OGT / Fold change vs veh, OGT / RFU, BRD1 / Fold change vs veh, BRD1 / RFU, MARS / Fold change vs veh, MARS / RFU, ZNF655 / Fold change vs veh, ZNF655 / RFU, FAHD1 / Fold change vs veh, FAHD1 / RFU, BDP1 / Fold change vs veh, BDP1 / RFU, LRRCC1 / Fold change vs veh, LRRCC1 / RFU, ARID1A / Fold change vs veh, ARID1A / RFU, ZNF146 / Fold change vs veh, ZNF146 / RFU, ZNF330 / Fold change vs veh, ZNF330 / RFU, GPN3 / Fold change vs veh, GPN3 / RFU, C9orf123 / Fold change vs veh, C9orf123 / RFU, N4BP2L2 / Fold change vs veh, N4BP2L2 / RFU, ARFIP1 / Fold change vs veh, ARFIP1 / RFU, FAM179B / Fold change vs veh, FAM179B / RFU, BCL10 / Fold change vs veh, BCL10 / RFU, UHRF1BP1L / Fold change vs veh, UHRF1BP1L / RFU, BET1 / Fold change vs veh, BET1 / RFU, CNOT2 / Fold change vs veh, CNOT2 / RFU, ZNF268 / Fold change vs veh, ZNF268 / Fold change vs veh, ZNF507 / RFU, DGCR2 / Fold change vs veh, DGCR2 / RFU, WDSUB1 / Fold change vs veh, WDSUB1 / Fold change vs veh, HSP90B1 /// MIR3652 / RFU, ADSS / Fold change vs veh, ADSS / RFU, GK / Fold change vs veh, GK / RFU, ZNF148 / Fold change vs veh, ZNF148 / RFU, TAF9 / Fold change vs veh, TAF9 / RFU, SLC1A5 / Fold change vs veh, SLC1A5 / RFU, SLMO2 / Fold change vs veh, SLMO2 / RFU, ABCC4 / Fold change vs veh, ABCC4 / RFU, LOC101060439 /// RAP1B / Fold change vs veh, LOC101060439 /// RAP1B / RFU, RFX7 / Fold change vs veh, RFX7 / RFU, GTPBP10 / Fold change vs veh, GTPBP10 / RFU, CNEP1R1 / Fold change vs veh, CNEP1R1 / RFU, BIVM-ERCC5 /// ERCC5 / Fold change vs veh, BIVM-ERCC5 /// ERCC5 / RFU, ILF3 / Fold change vs veh, ILF3 / RFU 11762660_at / Fold change /veh 11762660_at / RFU VCAN (11757783_s_at) / Fold change /veh VCAN (11757783_s_at) / RFU DDX43 (11728927_at) / Fold change /veh DDX43 (11728927_at) / RFU KRT8 (11758188_x_at) / Fold change /veh KRT8 (11758188_x_at) / RFU NKD1 (11759106_at) / Fold change /veh NKD1 (11759106_at) / RFU SRD5A1 (11742802_a_at) / Fold change /veh SRD5A1 (11742802_a_at) / RFU TPSAB1 /// TPSB2 (11721975_s_at) / Fold change /veh TPSAB1 /// TPSB2 (11721975_s_at) / RFU GSTM3 (11746129_a_at) / Fold change /veh GSTM3 (11746129_a_at) / RFU IL23R (11737362_x_at) / Fold change /veh IL23R (11737362_x_at) / RFU TMEM51 (11727254_a_at) / Fold change /veh TMEM51 (11727254_a_at) / RFU PIWIL2 (11732686_x_at) / Fold change /veh PIWIL2 (11732686_x_at) / RFU ORM1 (11744905_x_at) / Fold change /veh ORM1 (11744905_x_at) / RFU CCDC152 (11743942_at) / Fold change /veh CCDC152 (11743942_at) / RFU ECM1 (11717891_a_at) / Fold change /veh ECM1 (11717891_a_at) / RFU IL23R (11748794_a_at) / Fold change /veh IL23R (11748794_a_at) / RFU TNFAIP8L3 (11732012_x_at) / Fold change /veh TNFAIP8L3 (11732012_x_at) / RFU MBOAT4 (11741988_at) / Fold change /veh MBOAT4 (11741988_at) / RFU 11764193_at / Fold change /veh 11764193_at / RFU TMEM53 (11763286_at) / Fold change /veh TMEM53 (11763286_at) / RFU MAGEB2 (11727129_at) / Fold change /veh MAGEB2 (11727129_at) / RFU TMEM200A (11744735_a_at) / Fold change /veh TMEM200A (11744735_a_at) / RFU CCDC152 (11751479_a_at) / Fold change /veh CCDC152 (11751479_a_at) / RFU FAM211A (11726209_a_at) / Fold change /veh FAM211A (11726209_a_at) / RFU RGS16 (11746705_a_at) / Fold change /veh RGS16 (11746705_a_at) / RFU VCAN (11755009_s_at) / Fold change /veh VCAN (11755009_s_at) / RFU RHOB (11743442_s_at) / Fold change /veh RHOB (11743442_s_at) / RFU RGS16 (11720943_a_at) / Fold change /veh RGS16 (11720943_a_at) / RFU RGS16 (11720944_at) / Fold change /veh RGS16 (11720944_at) / RFU, VPS4B / Fold change vs veh, VPS4B / RFU, CREB1 / Fold change vs veh, CREB1 / RFU, DNAJC13 / Fold change vs veh, DNAJC13 / RFU, GNAQ / Fold change vs veh, GNAQ / RFU, CDK5R1 / Fold change vs veh, CDK5R1 / RFU, ZRANB3 / Fold change vs veh, ZRANB3 / RFU, CUL4A / Fold change vs veh, CUL4A / RFU, CCNY / Fold change vs veh, CCNY / RFU, UFL1 / Fold change vs veh, UFL1 / RFU, COG3 / Fold change vs veh, COG3 / RFU, DIAPH2 / Fold change vs veh, DIAPH2 / RFU, SKA2 / Fold change vs veh, SKA2 / RFU, AFF3 / Fold change vs veh, AFF3 / RFU, LMF1 / Fold change vs veh, LMF1 / RFU, IPO11 / Fold change vs veh, IPO11 / RFU, DFFB / Fold change vs veh, DFFB / RFU, FOXP1 / Fold change vs veh, FOXP1 / RFU, CARD8 / Fold change vs veh, CARD8 / RFU, STRN3 / Fold change vs veh, STRN3 / RFU, ADK / Fold change vs veh, ADK / RFU, RASSF2 / Fold change vs veh, RASSF2 / RFU, WIPF1 / Fold change vs veh, WIPF1 / RFU, LARP1B / Fold change vs veh, LARP1B / RFU, RASA1 / Fold change vs veh, RASA1 / RFU, RB1 / Fold change vs veh, RB1 / RFU, PPFIA1 / Fold change vs veh, PPFIA1 / RFU, MAT2A / Fold change vs veh, MAT2A / RFU, CCT5 / Fold change vs veh, CCT5 / RFU, WDR92 / Fold change vs veh, WDR92 / RFU, CUX1 / Fold change vs veh, CUX1 / RFU, TTC7A / Fold change vs veh, TTC7A / RFU, TMEM135 / Fold change vs veh, TMEM135 / RFU, DEPTOR / Fold change vs veh, DEPTOR / RFU, CPM / Fold change vs veh, CPM / RFU, DNAJB6 / Fold change vs veh, DNAJB6 / RFU, CACNA2D3 / Fold change vs veh, CACNA2D3 / RFU, DTX4 / Fold change vs veh, DTX4 / RFU, TFCP2 / Fold change vs veh, TFCP2 / RFU, GMCL1 /// GMCL1P1 / Fold change vs veh, GMCL1 /// GMCL1P1 / RFU, AEBP2 / Fold change vs veh, AEBP2 / RFU, SNHG1 /// SNORD22 /// SNORD25 /// SNORD26 /// SNORD27 /// SNORD28 /// SNORD29 /// SNORD31 / Fold change vs veh, SNHG1 /// SNORD22 /// SNORD25 /// SNORD26 /// SNORD27 /// SNORD28 /// SNORD29 /// SNORD31 / Fold change (Aza/veh), C12orf56 (ProbeSet 11735607_a_at) / Fold change (ACY-1035/veh), C12orf56 (ProbeSet 11735607_a_at) / Fold change (Aza/veh), FGFR1OP (ProbeSet 11751329_s_at) / Fold change (ACY-1035/veh), FGFR1OP (ProbeSet 11751329_s_at) / Fold change (Aza/veh), VPS36 (ProbeSet 11739960_a_at) / Fold change (ACY-1035/veh), VPS36 (ProbeSet 11739960_a_at) / RFU SYPL1 (11715823_x_at) / Fold change /veh SYPL1 (11715823_x_at) / RFU IGFBP7 (11715501_s_at) / Fold change /veh IGFBP7 (11715501_s_at) / RFU REEP3 (11722064_at) / Fold change /veh REEP3 (11722064_at) / RFU IGLL1 (11728026_x_at) / Fold change /veh IGLL1 (11728026_x_at): dose or concentration left out as unconfirmed", "settings": "MV-4-11 cells, 48 hours"}
{"smiles": "Nc1ccc(-c2cccs2)cc1NC(=O)c1ccc2c(c1)cc(C1CC1)n2CCN1CCOCC1", "note": "[ACY-1035]", "values": [{"measurement": "RFU MAGEB2 (11727129_at)", "value": 5.89, "unit": "RFU"}]}
